Test results from PubChem BioAssay AID1996.
In brackets after ≈: the same amount, converted by molar mass.

conditions: buffer; pH 7.4; 200.0 µM

Structure (SMILES) | solubility kinetic [µg/mL]
COc1ccc(C(=S)N2CCOCC2)cc1OC(=O)c1ccccc1 | 23.6 (≈ 66 µM)
COc1cccc2cc(C(=O)NCCc3ccccc3)oc12 | 26.9 (≈ 91.1 µM)
O=C(c1c(F)cccc1F)N1CCN(CCOc2ccccc2)CC1 | > 52
CCn1ccc(C(=O)NCCCN2CCCC2=O)n1 | > 39.6
Cc1ccc(OCC(=O)Nc2ccccc2F)cc1C | 3.2 (≈ 11.7 µM)
CCCCNC(=O)CSc1nc2ccc(C)cc2[nH]1 | > 41.6
CCN1C(=O)CC(c2cccnc2)=Nc2ccccc21 | > 39.8
CC(OC(=O)c1cccnc1)C(=O)Nc1ccc2c(c1)OCO2 (stereo unspecified) | 44 (≈ 140 µM)
Nc1ccccc1S(=O)(=O)C(F)F | 28.4 (≈ 137 µM)
Cc1cccc(/C=N/NC(=O)c2ccncc2)n1 | > 36
O=C(O)c1cccc(Nc2ccc3nonc3c2[N+](=O)[O-])c1 | 35.9 (≈ 120 µM)
O=C(N/C(=C\c1ccccc1)C(=O)N1CCCCC1)c1ccc(Br)o1 | > 60.5
NS(=O)(=O)c1ccc(NC(=O)c2cc(=O)c3ccccc3o2)cc1 | 18.7 (≈ 54.3 µM)
O=C(C(=O)N1CCCC1)c1c[nH]c2ccccc12 | > 36.3
O=C(Cn1cc(C(F)(F)F)ccc1=O)N1CCc2ccccc21 | 25.2 (≈ 78.2 µM)
O=C1NC(=Nc2ccccc2Cl)SC1(CO)CO | 42.3 (≈ 148 µM)
Cc1cc(C(=O)NCCc2ccc(Cl)cc2)c(C)o1 | 31.1 (≈ 112 µM)
CCOC(=O)CC1C(=O)NCCN1C1CCCC1 (stereo unspecified) | > 38.1
O=c1c2ccccc2[nH]c(=S)n1CCN1CCCCC1 | > 43.4
O=C(Nc1ccc2ccccc2c1)c1ccc(Br)o1 | 4.9 (≈ 15.5 µM)
CC(C)[C@H](NC(=O)c1ccc([N+](=O)[O-])cc1Cl)C(=O)N1CCN(C/C=C/c2ccccc2)CC1 | 44.3 (≈ 91.3 µM)
COc1cccc(N2CCN(C(=S)Nc3ccccc3)CC2)c1 | 2.9 (≈ 8.86 µM)
CC(=O)Nc1ccc(NC(=O)C(C)OC(=O)[C@@H]2CCCN2C(=O)c2cccs2)cc1 (stereo partly specified) | > 64.4
Cn1cccc1C(=O)Nc1ccc(N2CCOCC2)cc1 | > 42.8
Cn1c(CN2CCN(S(C)(=O)=O)CC2)nc2cc([N+](=O)[O-])ccc21 | > 53

Structure (SMILES) | solubility kinetic [µg/mL]
CCOC(=O)C1CCN(CC(=O)c2ccc(O)c(C)c2O)CC1 | 46.3 (≈ 144 µM)
Oc1ccc(C(=S)N2CCCC2)cc1 | > 31.1
Cc1[nH]c(=O)[nH]c(=O)c1S(=O)(=O)Nc1ccc(F)cc1F | > 47.6
CN1CCN(C(=O)c2cc3ccccc3cc2O)CC1 | > 40.5
O=C(Nc1ccc(C(F)(F)F)cc1)OC1CN2CCC1CC2 (stereo unspecified) | 45.1 (≈ 143 µM)
CN(CCOC(=O)c1ccc2c(c1)OCO2)C(C)(C)C.Cl | 41.7
O=C(NCC(O)CO)c1csc(Nc2cccc3ccccc23)n1 (stereo unspecified) | 38.5 (≈ 112 µM)
O=C(NCc1ccc(Cl)cc1)c1ccncc1 | > 37
COc1ccc(CN2C(=O)c3ccccc3C2OC)cc1 (stereo unspecified) | > 42.5
COc1cc(CN2CCCCCC2)cc(Br)c1O | 39.6 (≈ 126 µM)
CC(=O)Nc1c(O)c2cccc3c2n(c1=O)CCC3 | 36.5 (≈ 141 µM)
O=C(COC(=O)/C=C/c1cccs1)Nc1ccc(Cl)cc1F | 3.7 (≈ 10.9 µM)
Nc1cccc(Nc2ccccc2)c1 | > 27.6
C=CCOc1cccc(C(=O)NC(c2ccccc2)C(C)C)c1 (stereo unspecified) | 1.2 (≈ 3.88 µM)
CCC(CC)C(=O)N1CC(=O)Nc2ccc(C)cc2C1c1ccccc1 (stereo unspecified) | 2.4 (≈ 6.85 µM)
O=C(NC1CCCCC1)c1cc(-c2ccccc2Cl)on1 | < 0.3
COc1ccc(C(=O)NCCNC(=O)c2cnccn2)cc1OC | > 49.6
Cc1ccc(C(=O)NC(C)C2CCCO2)o1 (stereo unspecified) | > 33.5
CCC(CC)C(=O)NCc1ccc(Cl)cc1 | > 36
CC(=O)Nc1ccc(OCCC[n+]2ccccc2)cc1.[Cl-] | > 46
C=CCn1c(=O)c2ccccc2n2c(SCC(=O)NC(C)C)nnc12 | > 53.6
Cc1cccc(Nc2nnc(SC3CCOC3=O)s2)c1C (stereo unspecified) | > 48.2
COc1cccc(/C=C2\SC(N3CCC(C)CC3)=NC2=O)c1OC | 21.5 (≈ 62.1 µM)
O=[N+]([O-])c1ccc(C2NS(=O)(=O)N=C3CCCCCN32)cc1 (stereo unspecified) | > 48.7
O=C1CN(C(=O)/C=C/c2ccc(Cl)cc2Cl)CCN1 | 44.2 (≈ 148 µM)

Structure (SMILES) | solubility kinetic [µg/mL]
CC1(C)CC(=O)C2=C(C1)NC(=S)C(C#N)C21CCCCC1 (stereo unspecified) | > 45.4
Cc1ccc(C)c(OCC(=O)O/N=C(\N)c2cccc([N+](=O)[O-])c2)c1 | 1.2 (≈ 3.5 µM)
CCOc1ccccc1NC(=O)CN1C(=O)COc2ccccc21 | 3.6 (≈ 11 µM)
CNc1ccc(Cl)cc1C(N)=O | > 27.7
COc1ccccc1CNC(=O)c1ccc(NC(=O)CC2SC(N3CCCC3)=NC2=O)cc1 (stereo unspecified) | 9.4 (≈ 20.1 µM)
O=C(O)c1cc(-c2ccccc2)nc(-c2ccccc2)c1 | > 41.3
CN(C)c1cc(-c2ccc(Cl)cc2Cl)oc(=O)c1Cl | 3.3 (≈ 10.4 µM)
CCCn1c(=S)[nH]c2cc(Cl)ccc21 | 32.3 (≈ 142 µM)
O=C1[C@@H]2CSCN2C(=O)CN1Cc1ccccc1F | > 42
CCOc1ccc(S(=O)(=O)NC2CC2)cc1 | > 36.2
COc1ccc(NC(=O)c2ccco2)cn1 | > 32.7
Cc1ccc(NC(=O)COc2ccc(Br)cc2CO)cc1S(=O)(=O)N1CCOCC1 | 21.1 (≈ 42.3 µM)
Cc1noc(C)c1S(=O)(=O)Nc1cccc(C(F)(F)F)c1 | > 48
CCCCCCc1c(O)nc(SCCN(C)C)[nH]c1=O | 32.8 (≈ 110 µM)
COC(=O)c1ccc2nc(-c3ccc4c(c3)OCO4)cn2c1 | 1.2 (≈ 4.05 µM)
Clc1ccc(-c2nc(NCCCN3CCOCC3)c3ccccc3n2)cc1 | 1.4 (≈ 3.66 µM)
O=C(O)C1C2C=CC(O2)C1C(=O)Nc1cccc(C(F)(F)F)c1 (stereo unspecified) | > 49.1
CCn1cc(C2=NC(CCSC)CO2)c2ccccc21 (stereo unspecified) | 34 (≈ 118 µM)
CC1(C)CC(NC(=S)NC2CC2)CC(C)(C)N1 | > 38.3
Cc1ncc(CN2CCCC(C(=O)c3sccc3C)C2)s1 (stereo unspecified) | 37.4 (≈ 117 µM)
CSc1nc2c(c(=O)[nH]c(=O)n2C)n1Cc1ccccc1 | > 45.4
CC(C)Oc1ccc(C2CC(=O)N(C)C2=O)cc1 (stereo unspecified) | > 37.1
CCCOc1cccc(C(=O)NCCNC(=O)c2ccc(C)nc2)c1 | > 51.2
CN(C)c1ccc(/C=C2\C(=O)NC(=O)N(CCc3ccc(F)cc3)C2=O)cc1 | 11.2 (≈ 29.4 µM)
O=C(CSc1nc2ccccc2c(=O)n1CCCN1CCOCC1)Nc1ccc(Br)cc1 | 5.3 (≈ 10.2 µM)

Structure (SMILES) | solubility kinetic [µg/mL]
Cc1ccc(Nc2nc3ccccc3c(=O)[nH]2)cc1C | 0.4 (≈ 1.51 µM)
COc1ccc(NC(=S)NC(=O)C2CCC2)cc1 | 7.7 (≈ 29.1 µM)
Cc1ccc(N=Cc2ccc(N(C)C)cc2)cc1C | 20.3 (≈ 80.4 µM)
CC(C)c1ccc([N+](=O)[O-])cc1S(=O)(=O)N1CCN(C)CC1 | > 49.1
C=CCNC(=O)C1CC1(c1cccc(C)c1)c1cccc(C)c1 (stereo unspecified) | 1.7 (≈ 5.57 µM)
CCOC(=O)Cc1csc(NC(=O)COC(=O)/C=C/c2ccc(OC)cc2)n1 | 4.5 (≈ 11.1 µM)
Cc1cc(C)c(S(=O)(=O)c2ccc(F)cc2C)c(Cl)n1 | 36.8 (≈ 117 µM)
O=C(COc1cccnc1[N+](=O)[O-])N1CCC(Cc2ccccc2)CC1 | 51.9 (≈ 146 µM)
Cc1cc(C)c(NC(=O)c2ccc3nccnc3c2)c(C)c1 | 41.5 (≈ 142 µM)
O=C(Nc1cccc(C(=O)Nc2ccc(Cl)cn2)c1)c1ccccc1 | 0.7 (≈ 1.99 µM)
COc1ccc(C(CNS(=O)(=O)c2ccc(NC(C)=O)c(OC)c2)N2CCCC2)cc1.Cl (stereo unspecified) | > 72.6
N#CCCN(Cc1cccs1)C(=O)c1ccc(Cl)cc1 | > 45.7
CN(C)CC/C=C1/c2ccc(F)cc2Sc2ccc(Cl)cc21.Cl | 26.1
Nc1cc(S(=O)(=O)N2CCOCC2)ccc1N1CCOCC1 | > 49.1
Cc1cccc(OCC(=O)NCCCNC(=O)c2cccnc2)c1 | > 49.1
O=C(CSc1ncnc2ccccc12)NC1CCS(=O)(=O)C1 (stereo unspecified) | > 50.6
CC(=O)Nc1ccc(Nc2cc(C)nc3ccccc23)cc1 | 40.2 (≈ 138 µM)
CNc1nc(C23CC4CC(CC(C4)C2)C3)cs1 | 13 (≈ 52.3 µM)
CN(c1ccc(C(=O)N2CCOCC2)cc1)S(=O)(=O)c1cccs1 | 46.9 (≈ 128 µM)
Cc1cc(C)nc(SCc2ccc(F)cc2)n1 | 10 (≈ 40.3 µM)
CCC(CO)NC(=O)c1ccccc1C(F)(F)F (stereo unspecified) | 28 (≈ 107 µM)
CCCc1cc(C(=O)Nc2ccc(Cl)cn2)cs1 | 0.7 (≈ 2.49 µM)
Cc1c(C(=O)N2CCNCC2)oc2ccccc12.Cl | 40.9
COc1ccccc1OCCCn1cc(C(C)=O)c2ccccc21 | 25.8 (≈ 79.8 µM)
CN(C)C(=S)c1ccccc1 | 21.4 (≈ 129 µM)

Structure (SMILES) | solubility kinetic [µg/mL]
O=[N+]([O-])c1ccc(OCCO)nc1 | 26.7 (≈ 145 µM)
COC(=O)c1sccc1NC(=O)Nc1ccc(OC)cc1 | 40 (≈ 131 µM)
CN=C(Nc1cccc(S(=O)(=O)N2CCOCC2)c1)c1ccccc1 | 17.2 (≈ 47.9 µM)
Nc1ccc(S(=O)(=O)NCc2ccccn2)cc1 | > 39.5
O=C(Nc1ccc(F)cc1F)Nc1sccc1-c1nc2ccccc2s1 | 0.3 (≈ 0.774 µM)
Cc1cc(NC(=O)COc2ccc(C(C)(C)C)cc2)no1 | 2 (≈ 6.94 µM)
O=C(NC12CC3CC(CC(C3)C1)C2)c1ccc(N2CCNCC2)c([N+](=O)[O-])c1 | 40.8 (≈ 106 µM)
O=c1[nH]cnc2cc(-c3ccc(Br)cc3)sc12 | 0.6 (≈ 1.95 µM)
CN(C)C(=O)Oc1ccc2c(c1)O/C(=C\c1ccccc1)C2=O | 0.8 (≈ 2.59 µM)
COc1ccc(NC(=O)CS(=O)c2ccc(F)cc2)cc1 (stereo unspecified) | > 46.1
COc1ccc(-c2csc(N)n2)cc1F | 23.8 (≈ 106 µM)
Cc1nnc(SCC(=O)NC(C)(C)C)n1NCc1cccc(Br)c1 | > 61.9
CN(C)c1ccc(C(=O)N2CCCC2)cc1 | > 32.7
COc1cccc(NC(=O)CC(=O)c2ccccc2)c1 | > 40.4
COC(=O)c1cn(C(=O)c2cc(OC)cc(OC)c2)c2ccccc12 | 3.4 (≈ 10 µM)
O=C(NCCCn1ccnc1)C(=O)Nc1ccccc1 | 39.5 (≈ 145 µM)
OCCN1CCN(CC#CCC(c2ccccc2)c2ccccc2)CC1 | > 52.3
CCOC(=O)Cn1nc(C)c(NC(=O)COc2cccc(Cl)c2)c1C | > 54.9
COc1ccc(/C=C2\C(=O)NC(=S)N(C)C2=O)cc1C | > 43.6
Cc1ccc2[nH]c(C)c(CCNC(=O)NC3CCCCC3)c2c1 | 1 (≈ 3.19 µM)
CC(Nc1nc(N2CCOCC2)nc2ccccc12)c1ccccc1 (stereo unspecified) | 6.8 (≈ 20.3 µM)
